Read-outs that look alike come from different tables or passages of the source.
Legend:
CDC2Y15 = assay: Western blot of CDC2Y15 expression in FNAB cell extracts from treated xenograft mice; parameters: species or system mouse; details: in vivo treatment; compared to vehicle and gemcitabine treatments; FIG. 7A column (a)
Protocol: (§1) Xenograft mice bearing human osteosarcoma tumor were treated with vehicle, gemcitabine, MK-1775, or a combination of gemcitabine and MK-1775 for 15 days. Treatments were administered on day 1, 3, 8, and 10. FNAB samples were taken before (day 0) and at 6 and 24 hours after treatment. Cell extracts were prepared from the FNAB samples to assess expression levels of CDC2Y15, a target for MK-1775, by Western blot. After day 15, tumors were analyzed by T2-weighted MRIs and paraffin sections of tumors were prepared to assess microscopic features of cell death by H&E-staining and to assess levels of cleaved-caspase 3.

[1] = system: tumor fragments obtained by FNAB from a patient-derived osteosarcoma xenograft model; assay type: in vitro ADME, human
Protocol: (§2) FIG. 8 provides an expanded view of an extracted ion chromatogram (XIC) from a potential metabolite highlighted against the background sample. Perfused fluid was collected from the fluidic apparatus as described in the above experiment performed with the FNAB samples (FIGS. 2A-C) to determine whether tumor-mediated drug processing and metabolism can be analyzed. Fluidic samples were prepared by filtration and analyzed by mass spectrometry.

[2] = system: FNAB osteosarcoma samples; assay: Active caspase ELISA of perfused fluid from fluidic apparatus; assay type: cell-based, human; details: data not shown
Protocol: The fluidic apparatuses were connected to their respective syringe pumps. The FNAB samples were first primed with several passes of culture media. After priming, each FNAB sample was subject to constant laminar flow at 100 μl/hr for 72 hours with their respective treatment. Media was collected every 24 hours and analyzed for caspase 3 and 7 and lactate dehydrogenase (LDH).
as §2

[3] = system: patient-derived osteosarcoma xenograft; assay: Treatment of patient-derived osteosarcoma xenograft mice in vivo (MRI tumor volume, H&E, cleaved-caspase 3); parameters: species or system mouse
Protocol: as §1
The symbol (*) indicates statistical significance (p<0.05).

[4] = system: FNAB osteosarcoma samples; assay: Ex vivo treatment of FNAB osteosarcoma samples in microfluidic apparatus, LIVE/DEAD fluorescence staining; assay type: cell-based, human
Description: Eight micro-scale fluidic apparatuses of the present technology were fabricated from soft photolithography and bonded onto glass coverslip slides. The apparatuses were sterilized by ethylene oxide (EtO) gas. Each fluidic apparatus included a single channel, and the center of the channel contained a series of seven free standing post, collectively called the retaining element, which were used to retain the FNBA osteosarcoma sample (see FIG. 3A). Fluid flows into the channel by an inlet port and out of the channel by an outlet port.
FNAB osteosarcoma samples were taken from xenograft mouse with patient-derived osteosarcoma using a 25-gauge needle. FNABs were processed and selected for viability by H&E staining procedures before use and individually loaded one into each retaining element and imaged by microscopy and measured for size (all FNABs assayed were ˜300 μm in diameter). […]
The fluidic apparatuses were connected to their respective syringe pumps. […] Media was collected every 24 hours and analyzed for caspase 3 and 7 and lactate dehydrogenase (LDH). […]
The FNAB samples were fully penetrated by drugs. Tumor cells were stained with HCS LIVE/DEAD® Green Kit (Life Technologies, Carlsband, Calif.) and images were obtained using inverted fluorescence microscope to assess dead (green) and alive (blue) cells.

[5] = compared to vehicle and gemcitabine treatments, FIG. 7A column (c)

Row | Compound | expression levels of CDC2Y15 (CDC2Y15) | drug metabolism by tumor fragments (mass spectrometry) ([1]; human) | cell death by active caspase ELISA [2] | apoptosis of the cancer cells, in vivo model ([3]; 15 days of treatment) | DNA staining of tumor sections [3, 5] | immunoreactivity to caspase 3 [3, 5] | tumor volume at day 15 ([3]; day 15, compared to vehicle and gemcitabine treatments, FIG. 7A column (b)) | cell death in vivo ([3]; patient-derived osteosarcoma xenograft mouse model, FIG. 7A) | cell death in tumor fragments ex vivo ([4]; 1 μM MK-1775, 3 μM gemcitabine, 100 μl/hr for 72 hours, LIVE/DEAD stain, FIG. 7C) | apoptosis of the cancer cells, ex vivo model ([4]; 72 hour period) | drug metabolism by tumor fragments (mass spectrometry) [1]
1 | C=CCn1c(=O)c2cnc(Nc3ccc(N4CCN(C)CC4)cc3)nc2n1-c1cccc(C(C)(C)O)n1 [MK-1775] | reduces expression levels of CDC2Y15 | metabolism of MK-1775 into its metabolized forms | increased cell death | able to induce apoptosis | decreased DNA staining | high immunoreactivity to caspase 3 | reduced tumor volume | lead to cell death | lead to cell death | able to induce apoptosis | 
2 | Nc1ccn([C@@H]2O[C@H](CO)[C@@H](O)C2(F)F)c(=O)n1 [gemcitabine] |  |  | not |  |  |  |  |  |  |  | active metabolism of gemcitabine into its active form, triphosphate

Source: patent US9879308B2, “Apparatus for ex vivo microfluidic analysis of biologic samples” (The Charles Stark Draper Laboratory, Inc., priority 2012, dated 2018)
